Assay results as given in patent publication US4978783A, “2,6-dimethoxyhydroquinone-3-mercaptopropionic acid, 2,6-dimethoxyhydroquinone-3-mercaptoacetic acid, and antitumor use thereof” (National Science Council, priority 1990, dated 1990).
In brackets after ≈: the same amount, converted by molar mass. Entries after “also recorded” stand apart in the source; their conditions may differ. Blank lines part the entries; values can stand above or below the molecule they belong to.

Key:
[1] = test system: HeLa (cervical carcinoma) cells; assay: Cytotoxicity against HeLa cells by the MTT method; assay type: cell-based, human; conditions: 5760 min
From the text: (§1) A convenient cytotoxicity assay adopted in this example for the evaluation of antitumor activity is the MTT method disclosed in an article by Twentyman and Luscombe, entitled "A study of some variables in a tetrazolium dye (MTT) based assay for cell growth and chemosensitivity" Br. J. Cancer. 56, 279-285 (1987).
(§2) Four different human cancer cell lines were used in this assay. These were KB (oral epidermoid carcinoma); Colo-205 (colon adenocarcinoma); HeLa (cervical carcinoma); and HEP-2 (larynx epidermoid carcinoma).
(§3) Cells were taken from exponential phase cultures and were allowed to grow in a plate containing 96 wells using RPMI-1640 medium supplemented with 5% fetal bovine serum, 1 mM glutamine and antibiotics (penicillin and streptomycin) at 37° C. in a CO2 incubator. Cell suspensions were trypsinized and disaggregated. 3×10^3 cells were inoculated into each well in 0.18 ml of medium, to which 0.02 ml of drug was added. After 4 days of culture, 0.1 mg of 3-(4,5-dimethylthiazol-2-yl)-2,5-diphenyltetrazolium bromide (MTT) was added to each well and the plate incubated for 4 hours. The medium was then removed, 0.2 ml DMSO was added to each well and the plate agitated for 10 min. The optical density of each well was measured at a 545 nm test wavelength and a 690 nm reference wavelength using a Titertek Multiskan plate reader. Absorbance levers from drug tested cells were corrected against untreated control values.
(§4) *Cytotoxicity index (CI) = 100% × [1(O.D. of treated cells / O.D. o

[2] = test system: Colo-205 (colon adenocarcinoma) cells; assay: Cytotoxicity assay against Colo-205 cells by the MTT method; assay type: cell-based, human; conditions: for CI: 5760 min; for Cytotoxicity index (CI): Table 1, 4 days; for CI value compared with DMQ, in words: versus DMQ
Protocol: Four different human cancer cell lines were used in this assay.
as §3, with “Cell” for “Cells were taken from exponential phase cultures and were allowed to grow in a plate containing 96 wells using RPMI-1640 medium supplemented with 5% fetal bovine serum, 1 mM glutamine and antibiotics (penicillin and streptomycin) at 37° C. in a CO2 incubator. Cell”
as §4

human tumor cell lines = assay: Cytotoxicity against four/several human tumor cell lines, (MTT method); assay type: cell-based; conditions: for cytotoxicity at 100 µg/mL: 96 h, each alone, DMQ-MP 1 μg/ml or D-isoascorbic acid 100 μg/ml, read-out: cytotoxicity index (CI) value, summary; for cytotoxicity compared with DMQ, in words: drug without activator, versus DMQ; for cytotoxicity in combination with L-ascorbic acid or D-isoascorbic acid, in words: several human cancer cell lines, in vitro
From the text: as §1, §2, §3

[3] = test system: HEP-2 (larynx epidermoid carcinoma) cells; assay: Cytotoxicity against HEP-2 cells by the MTT method; assay type: cell-based, human; conditions: 5760 min
From the text: as §1, §2, §3, §4

[4] = test system: KB (oral epidermoid carcinoma) cells; assay: Cytotoxicity against KB cells by the MTT method; assay type: cell-based, human; conditions: 5760 min
From the text: as §1, §2, §3, §4

[5] = background statement; cited from earlier work
Ehrlich ascites = conditions: DMQ in combination with L-ascorbic acid; cited from earlier work
[6] = background statement; cited from earlier work; remark: listed apart in the source
Solubility in H2O = assay type: physicochemical; conditions: for solubility: water; for solubility / solubility relative to DMQ (times higher): H2O, 27° C.; for solubility relative to DMQ (times higher): versus DMQ; for water-solubility, in words: compared with DMQ
normal cells = conditions: background statement; cited from earlier work
[7] = Hydrophobicity (statement); assay type: physicochemical; conditions: to gain passage into the cell via the cell membrane
[8] = cited from earlier work
[9] = Table 2, D-isoascorbic acid 100 μg/ml alone
[10] = Table 3, DMQ-MA 1 μg/ml + L-ascorbate 100 μg/ml
[11] = Table 3, DMQ-MA 1 μg/ml, no activator
[12] = Table 2, DMQ-MP 1 μg/ml + D-isoascorbic acid 100 μg/ml
[13] = Table 2, DMQ-MP 1 μg/ml, no activator
[14] = Table 3, L-ascorbate 100 μg/ml alone

SMILES: O=C1O[C@H]([C@H](O)CO)C(O)=C1O [D-isoascorbic acid, reference compound]
- CI [1, 9]: 5%
- CI [2, 9]: 24%
- cytotoxicity at 100 µg/mL (human tumor cell lines; four human tumor cell lines): < 25%
- CI [3, 9]: 13%
- CI [4, 9]: 11%

SMILES: COC1=CC(=O)C=C(OC)C1=O [DMQ, 2,6-dimethoxy-p-benzoquinone]
- Cytotoxicity index (CI) ([2]; drug 1.0 μg/ml, L-ascorbate 100 μg/ml): 76.6%
- Cytotoxicity index (CI) ([2]; drug 10 μg/ml, no L-ascorbate): 87.9%
- precipitation from the blood, in words [5]: precipitate from the blood easily
- effect in Ehrlich ascites-bearing mice, in words (Ehrlich ascites): effective
- solubility in water, in words [6]: poor solubility in water
- solubility (Solubility in H2O): 74 µg/mL (≈ 0.44 mM)
- cytotoxicity to normal cells, in words (normal cells): certain degree of cytotoxicity; also recorded: destruction of normal cells

- hydrophobicity, in words [7]: a certain degree of hydrophobicity
- solubility relative to DMQ (times higher) (Solubility in H2O): about 70 times
- solubility (Solubility in H2O): 5000 µg/mL (≈ 19.2 mM)
SMILES: COc1cc(O)c(SCC(=O)O)c(OC)c1O [DMQ-MA, 2,6-dimethoxyhydroquinone-3-mercaptoacetic acid]
- CI [1, 10]: 79%
- CI [1, 11]: 3%
- Cytotoxicity index (CI) ([2]; drug 10 μg/ml, L-ascorbate 1.0 μg/ml (so in the source)): 22.1%
- CI [2, 10]: 86%
- CI [2, 11]: 0%
- CI value compared with DMQ, in words ([2]; drug 10 μg/ml): significantly lower than DMQ
- cytotoxicity compared with DMQ, in words (human tumor cell lines): less cytotoxic
- cytotoxicity in combination with L-ascorbic acid or D-isoascorbic acid, in words (human tumor cell lines): greatly augmented; also recorded: act synergistically
- CI [3, 10]: 86%
- CI [3, 11]: 2%
- CI [4, 10]: 89%
- CI [4, 11]: 0%
- water-solubility, in words (Solubility in H2O): a lot more water-soluble than DMQ; also recorded: significantly improved water-solubility in comparison with DMQ

- hydrophobicity, in words [7]: a certain degree of hydrophobicity
- solubility relative to DMQ (times higher) (Solubility in H2O): about 70 times
- solubility (Solubility in H2O): 5330 µg/mL (≈ 19.4 mM)
SMILES: COc1cc(O)c(SCCC(=O)O)c(OC)c1O [DMQ-MP, 2,6-dimethoxyhydroquinone-3-mercaptopropionic acid]
- CI [1, 12]: 88%
- CI [1, 13]: 11%
- Cytotoxicity index (CI) ([2]; drug 10 μg/ml, no L-ascorbate): 43.5%
- CI [2, 12]: 78%
- CI [2, 13]: 17%
- CI value compared with DMQ, in words ([2]; drug 10 μg/ml): significantly lower than DMQ
- cytotoxicity at 100 µg/mL (human tumor cell lines; four human tumor cell lines): < 25%
- CI values, summary (human tumor cell lines; DMQ-MP 1 μg/ml in combination with D-isoascorbic acid 100 μg/ml, four human tumor cell lines, 5760 min): 77-88%
- cytotoxicity compared with DMQ, in words (human tumor cell lines): less cytotoxic
- cytotoxicity in combination with L-ascorbic acid or D-isoascorbic acid, in words (human tumor cell lines): greatly augmented; also recorded: act synergistically
- CI [3, 12]: 77%
- CI [3, 13]: 13%
- CI [4, 12]: 79%
- CI [4, 13]: 10%
- water-solubility, in words (Solubility in H2O): a lot more water-soluble than DMQ; also recorded: significantly improved water-solubility in comparison with DMQ

SMILES: O=C1O[C@H]([C@@H](O)CO)C(O)=C1O [L-ascorbate, reference compound]
- CI [1, 14]: 2%
- CI [2, 14]: 5%
- CI [3, 14]: 9%
- concentration of L-ascorbate in the human body [8]: ≤ 1000 µM
- CI [4, 14]: 0.4%
